Key:
[1] = system: PC-3; assay: Cytotoxicity against human PC3 cells after 72 hrs by MTT assay; format: functional, cell-based; settings: PC-3, 72 h
[2] = Cytotoxicity against human EC109 cells after 72 hrs by MTT assay; format: functional, cell-based; settings: ECa-109, 72 h
[3] = system: MCF7; assay: cells; settings: Homo sapiens, MCF7, 72 h
Description: Cytotoxicity against human MCF7 cells after 72 hrs by MTT assay

[4] = system: MGC-803; assay: Cytotoxicity against human MGC803 cells after 72 hrs by MTT assay; format: functional, cell-based; settings: MGC-803, 72 h
[5] = system: SMMC-7721; assay: Cytotoxicity against human SMMC7721 cells after 72 hrs by MTT assay; format: functional, cell-based; settings: SMMC-7721, 72 h
[6] = system: SMMC-7721; assay: Ratio of 5-fluorouracil IC50 to compound IC50 for human SMMC7721 cells; format: functional
[7] = system: MGC-803; assay: Ratio of 5-fluorouracil IC50 to compound IC50 for human MGC803 cells; format: functional

Work on `C[C@]12CC[C@H](O)CC1=CC[C@@H]1[C@@H]2CC[C@]2(C)C(=C(/C#N)C(N)=O)/C(=C/c3ccccc3Cl)C[C@@H]12` yielded an IC50 [1] of 16.9 µM, an IC50 [2] of 13.2 µM and an IC50 [3] of 5.34 µM. It also gave an IC50 [4] of 5.13 µM and an IC50 [5] of 3.63 µM.
In the case of `CC(=O)O[C@H]1CC[C@@]2(C)C(=CC[C@@H]3[C@@H]2CC[C@]2(C)C(=C(/C#N)C(N)=O)/C(=C/c4ccc(F)c(F)c4)C[C@@H]32)C1`, the IC50 [1] is reported as 8.48 µM, the IC50 [2] is reported as 3.05 µM and the IC50 [3] is reported as 4.77 µM. The IC50 [4] was 1.56 µM and the IC50 [5] was 5.66 µM.
For `CC(=O)O[C@H]1CC[C@@]2(C)C(=CC[C@@H]3[C@@H]2CC[C@]2(C)C(=C(/C#N)C(N)=O)/C(=C/c4ccc(C)cc4)C[C@@H]32)C1`, the IC50 [1] was 22.9 µM, the IC50 [2] was 12 µM and the IC50 [3] was 6.35 µM. The IC50 [4] was 8.1 µM and the IC50 [5] was 18.6 µM.
For `C[C@]12CC[C@H](O)CC1=CC[C@@H]1[C@@H]2CC[C@]2(C)C(=C(/C#N)C(N)=O)/C(=C/c3ccccc3F)C[C@@H]12`, the IC50 [1] was 13.3 µM, the “Ratio IC50” value [6] was 5 and the IC50 [2] was 14.6 µM. For the same molecule, the IC50 [3] was 6.58 µM, the IC50 [4] was 2.69 µM and the IC50 [5] was 1.9 µM.
`C[C@]12CC[C@H](O)CC1=CC[C@@H]1[C@@H]2CC[C@]2(C)C(=C(/C#N)C(N)=O)/C(=C/c3ccc(Cl)c(Cl)c3)C[C@@H]12` showed an IC50 [1] of 8.84 µM, an IC50 [2] of 8.61 µM and an IC50 [3] of 2.41 µM. The IC50 [4] was 5.11 µM and the IC50 [5] was 3.34 µM.
For `COc1cc(/C=C2\C[C@H]3[C@@H]4CC=C5C[C@@H](OC(C)=O)CC[C@]5(C)[C@H]4CC[C@]3(C)\C2=C(\C#N)C(N)=O)cc(OC)c1OC`, the IC50 [1] was 11.7 µM, the IC50 [2] was 5.28 µM and the IC50 [3] was 5.23 µM. It also gave an IC50 [4] of 6.34 µM and an IC50 [5] of 2.82 µM.
In the case of `COc1cc(/C=C2\C[C@H]3[C@@H]4CC=C5C[C@@H](O)CC[C@]5(C)[C@H]4CC[C@]3(C)\C2=C(\C#N)C(N)=O)cc(OC)c1OC`, the IC50 [1] is reported as 12.2 µM, the IC50 [2] is reported as 8.72 µM and the IC50 [3] is reported as 6.54 µM. For the same molecule, the IC50 [4] was 1.83 µM and the IC50 [5] was 7.94 µM.
`CC(=O)O[C@H]1CC[C@@]2(C)C(=CC[C@@H]3[C@@H]2CC[C@]2(C)C(=C(/C#N)C(N)=O)/C(=C/c4ccc(F)cc4)C[C@@H]32)C1` gave an IC50 [1] of 9.17 µM, an IC50 [2] of 4.78 µM and an IC50 [3] of 3.67 µM. The IC50 [4] was 3.11 µM and the IC50 [5] was 5.9 µM.
In the case of `CC(=O)O[C@H]1CC[C@@]2(C)C(=CC[C@@H]3[C@@H]2CC[C@]2(C)C(=C(/C#N)C(N)=O)/C(=C/c4ccc(Cl)cc4Cl)C[C@@H]32)C1`, the IC50 [1] is reported as 24.3 µM, the IC50 [2] is reported as 5.24 µM and the IC50 [3] is reported as 3.98 µM. It also gave an IC50 [4] of 7.38 µM and an IC50 [5] of 5.04 µM.
Molecule `CC(=O)O[C@H]1CC[C@@]2(C)C(=CC[C@@H]3[C@@H]2CC[C@]2(C)C(=C(/C#N)C(N)=O)/C(=C/c4ccccc4F)C[C@@H]32)C1` has an IC50 [1] of 11.4 µM, an IC50 [2] of 15.6 µM and an IC50 [3] of 4.66 µM. It also gave an IC50 [4] of 2.99 µM and an IC50 [5] of 15.4 µM.
For `CC(=O)O[C@H]1CC[C@@]2(C)C(=CC[C@@H]3[C@@H]2CC[C@]2(C)C(=C(/C#N)C(N)=O)/C(=C/c4cccc(Cl)c4)C[C@@H]32)C1`, the IC50 [1] was 11.3 µM, the IC50 [2] was 8.97 µM and the IC50 [3] was 8.01 µM. The IC50 [4] was 0.11 µM and the IC50 [5] was 7.12 µM.
Molecule `O=c1[nH]cc(F)c(=O)[nH]1` [FLUOROURACIL] has an IC50 [1] of 24.8 µM, an IC50 [2] of 10.6 µM and an IC50 [5] of 9.78 µM.
Molecule `CC(=O)O[C@H]1CC[C@@]2(C)C(=CC[C@@H]3[C@@H]2CC[C@]2(C)C(=C(/C#N)C(N)=O)/C(=C/c4ccc(C(C)C)cc4)C[C@@H]32)C1` has an IC50 [1] of 13.5 µM, an IC50 [2] of 10 µM and an IC50 [3] of 15.3 µM. The IC50 [4] was 1.09 µM and the IC50 [5] was 9.3 µM.
For `COc1cccc(/C=C2\C[C@H]3[C@@H]4CC=C5C[C@@H](O)CC[C@]5(C)[C@H]4CC[C@]3(C)\C2=C(\C#N)C(N)=O)c1`, the IC50 [1] was 14 µM, the IC50 [2] was 9.27 µM and the IC50 [3] was 5.57 µM. For the same molecule, the IC50 [4] was 3.96 µM and the IC50 [5] was 6.09 µM.
With `CC(=O)O[C@H]1CC[C@@]2(C)C(=CC[C@@H]3[C@@H]2CC[C@]2(C)C(=C(/C#N)C(N)=O)/C(=C/c4ccc(Br)cc4)C[C@@H]32)C1` the IC50 [1] was 26.8 µM, the IC50 [2] was 5.3 µM and the IC50 [3] was 2.95 µM. For the same molecule, the IC50 [4] was 2.71 µM and the IC50 [5] was 16.5 µM.
With `CC(=O)O[C@H]1CC[C@@]2(C)C(=CC[C@@H]3[C@@H]2CC[C@]2(C)C(=C(/C#N)C(N)=O)/C(=C/c4ccco4)C[C@@H]32)C1` the IC50 [1] was 23.4 µM, the IC50 [2] was 39.4 µM and the “Ratio IC50” value [7] was 57. The IC50 [3] was 39.4 µM, the IC50 [4] was 0.12 µM and the IC50 [5] was 22.9 µM.
With `CC(=O)O[C@H]1CC[C@@]2(C)C(=CC[C@@H]3[C@@H]2CC[C@]2(C)C(=C(/C#N)C(N)=O)/C(=C/c4cccs4)C[C@@H]32)C1` the IC50 [1] was 20.4 µM, the IC50 [2] was 20.3 µM and the “Ratio IC50” value [7] was 45. It also gave an IC50 [3] of 22.8 µM, an IC50 [4] of 0.15 µM and an IC50 [5] of 20.4 µM.
For `CC(=O)O[C@H]1CC[C@@]2(C)C(=CC[C@@H]3[C@@H]2CC[C@]2(C)C(=C(/C#N)C(N)=O)/C(=C/c4ccccc4C#N)C[C@@H]32)C1`, the IC50 [3] was 22.4 µM.
In the case of `CC(=O)O[C@H]1CC[C@@]2(C)C(=CC[C@@H]3[C@@H]2CC[C@]2(C)C(=C(/C#N)C(N)=O)/C(=C/c4ccccc4)C[C@@H]32)C1`, the IC50 [1] is reported as 12.8 µM, the IC50 [2] is reported as 11.7 µM and the IC50 [3] is reported as 7.47 µM. It also gave an IC50 [4] of 3.1 µM and an IC50 [5] of 5.03 µM.
In the case of `CC(=O)O[C@H]1CC[C@@]2(C)C(=CC[C@@H]3[C@@H]2CC[C@]2(C)C(=C(/C#N)C(N)=O)/C(=C/c4ccc(Cl)c(Cl)c4)C[C@@H]32)C1`, the IC50 [1] is reported as 8.18 µM, the IC50 [2] is reported as 4.37 µM and the IC50 [3] is reported as 2.21 µM. It also gave an IC50 [4] of 3.2 µM and an IC50 [5] of 2.55 µM.
With `C[C@]12CC[C@H](O)CC1=CC[C@@H]1[C@@H]2CC[C@]2(C)C(=C(/C#N)C(N)=O)/C(=C/c3ccc(F)cc3)C[C@@H]12` the IC50 [1] was 14.6 µM, the IC50 [2] was 8.69 µM and the IC50 [3] was 5.92 µM. For the same molecule, the IC50 [4] was 5.67 µM and the IC50 [5] was 3.34 µM.
Molecule `CC(=O)O[C@H]1CC[C@@]2(C)C(=CC[C@@H]3[C@@H]2CC[C@]2(C)C(=C(/C#N)C(N)=O)/C(=C/c4ccccc4Cl)C[C@@H]32)C1` has an IC50 [1] of 24.3 µM, an IC50 [2] of 11.9 µM and an IC50 [3] of 6.27 µM. The IC50 [4] was 0.58 µM and the IC50 [5] was 18.4 µM.
`COc1cccc(/C=C2\C[C@H]3[C@@H]4CC=C5C[C@@H](OC(C)=O)CC[C@]5(C)[C@H]4CC[C@]3(C)\C2=C(\C#N)C(N)=O)c1` showed an IC50 [1] of 13 µM, an IC50 [2] of 7.04 µM and an IC50 [3] of 8.36 µM. For the same molecule, the IC50 [4] was 2.19 µM and the IC50 [5] was 11.5 µM.
